Data: patent US9174969B2, “Indoline scaffold SHP-2 inhibitors and cancer treatment method” (UNIVERSITY OF SOUTH FLORIDA, priority 2008, dated 2015)

What follows are molecules tested against Shp2 (Homo sapiens (Human), UniProt Q06124) (assay: in vitro phosphotyrosine phosphatase activity (DiFMUP) assay). Details: mean ± spread over n tests.
Type: biochemical
Experimental: All reagents were purchased from commercial suppliers and used without further purification. Melting points were determined using a Barnstead international melting point apparatus and remain uncorrected. ^1H NMR spectra were recorded on a Varian Mercury 400 MHz spectrometer with CDCl3 or DMSO-d6 as the solvent. ^13C NMR spectra are recorded at 100 MHz. All coupling constants are measured in Hertz (Hz) and the chemical shifts (δH and δC) are quoted in parts per million (ppm) relative to TMS (δ0), which was used as the internal standard. High resolution mass spectroscopy was carried out on an Agilent 6210 LC/MS (ESI-TOF). Microwave reactions were performed in CEM 908005 model and Biotage initiator 8 machines. HPLC analysis was performed using a JASCO HPLC system equipped with a PU-2089 Plus quaternary gradient pump and a UV-2075 Plus UV-VIS detector, using an Alitech Kromasil C-18 column (150×4.6 mm, 5 μm). Thin layer chromatography was performed using silica gel 60 F254 plates (Fisher), with observation under UV when necessary. Anhydrous solvents (acetonitrile, dimethyl formamide, ethanol, isopropanol, methanol and tetrahydrofuran) were used as purchased from Aldrich. HPLC grade solvents (methanol, acetonitrile and water) were purchased from Burdick and Jackson for HPLC and mass analysis.

Molecule | IC50
4-(6-(4-(3-Chlorophenyl)piperazin-1-ylsulfonyl)-3,4-dihydroquinolin-1(2H)-yl)-4-oxobutanoic acid [JHE-02-023] | 37.3 ± 5.3 µM
O=C(c1cccc(Cl)c1)N1CCc2cc(S(=O)(=O)N3CCN(c4cccc(Cl)c4)CC3)ccc21 [JF020, (3-Chlorophenyl)(5-(4-(3-chlorophenyl)piperazin-1-ylsulfonyl)indolin-1-yl)methanone] | 5.7 ± 3.9 µM
O=C(c1ccc(Cl)cc1)N1CCc2cc(S(=O)(=O)N3CCN(c4cccc(Cl)c4)CC3)ccc21 [JF021, (4-Chlorophenyl)(5-(4-(3-chlorophenyl)piperazin-1-ylsulfonyl)indolin-1-yl)methanone] | 10.4 ± 2 µM
O=C(c1ccccc1)N1CCc2cc(S(=O)(=O)N3CCN(c4cccc(Cl)c4)CC3)ccc21 [JF022, (5-(4-(3-Chlorophenyl)piperazin-1-ylsulfonyl)indolin-1-yl)(phenyl)methanone] | 8.4 ± 2.3 µM
O=C(c1ccc(Cl)cc1Cl)N1CCc2cc(S(=O)(=O)N3CCN(c4cccc(Cl)c4)CC3)ccc21 [JF024, (5-(4-(3-Chlorophenyl)piperazin-1-ylsulfonyl)indolin-1-yl)(2,4-dichlorophenyl)methanone] | 7.6 ± 1.3 µM
O=C(c1cc(Cl)cc(Cl)c1)N1CCc2cc(S(=O)(=O)N3CCN(c4cccc(Cl)c4)CC3)ccc21 [JF025, (5-(4-(3-Chlorophenyl)piperazin-1-ylsulfonyl)indolin-1-yl)(3,5-dichlorophenyl)methanone] | 8.2 ± 2.6 µM
O=C(C1CCCC1)N1CCc2cc(S(=O)(=O)N3CCN(c4cccc(Cl)c4)CC3)ccc21 [JF026, (5-(4-(3-Chlorophenyl)piperazin-1-ylsulfonyl)indolin-1-yl)(cyclopentyl)methanone] | 6.9 ± 2.2 µM
O=C(C1CC1)N1CCc2cc(S(=O)(=O)N3CCN(c4cccc(Cl)c4)CC3)ccc21 [JF027, (5-(4-(3-Chlorophenyl)piperazin-1-ylsulfonyl)indolin-1-yl)(cyclopropyl)methanone] | 8.5 ± 2 µM
COc1ccc(C(=O)N2CCc3cc(S(=O)(=O)N4CCN(c5cccc(Cl)c5)CC4)ccc32)cc1 [JF028, (5-(4-(3-Chlorophenyl)piperazin-1-ylsulfonyl)indolin-1-yl)(4-methoxyphenyl)methanone] | 6.3 ± 2.9 µM
O=C(Cc1ccccc1)N1CCc2cc(S(=O)(=O)N3CCN(c4cccc(Cl)c4)CC3)ccc21 [JF031, 1-(5-(4-(3-Chlorophenyl)piperazin-1-ylsulfonyl)indolin-1-yl)-2-phenyleth anone] | 22.8 ± 4.5 µM
O=C(Nc1ccccc1)N1CCc2cc(S(=O)(=O)N3CCN(c4cccc(Cl)c4)CC3)ccc21 [JF033, 5-(4-(3-Chlorophenyl)piperazin-1-ylsulfonyl)-N-phenylindoline-1-carboxamide] | 11.7 ± 1.4 µM
O=C(Nc1ccccc1F)N1CCc2cc(S(=O)(=O)N3CCN(c4cccc(Cl)c4)CC3)ccc21 [JF035, 5-(4-(3-Chlorophenyl)piperazin-1-ylsulfonyl)-N-(2-fluorophenyl)indoline-1-carboxamide] | 12.2 ± 2 µM
O=C(Nc1ccc(F)cc1)N1CCc2cc(S(=O)(=O)N3CCN(c4cccc(Cl)c4)CC3)ccc21 [JF038, 5-(4-(3-Chlorophenyl)piperazin-1-ylsulfonyl)-N-(4-fluorophenyl)indoline-1-carboxamide] | 12.6 ± 5.4 µM
O=C(Nc1cccc(F)c1)N1CCc2cc(S(=O)(=O)N3CCN(c4cccc(Cl)c4)CC3)ccc21 [JF039, 5-(4-(3-Chlorophenyl)piperazin-1-ylsulfonyl)-N-(3-fluorophenyl)indoline-1-carboxamide] | 8.1 ± 1.7 µM
O=C(Nc1ccccc1C(F)(F)F)N1CCc2cc(S(=O)(=O)N3CCN(c4cccc(Cl)c4)CC3)ccc21 [JF040, 5-(4-(3-Chlorophenyl)piperazin-1-ylsulfonyl)-N-(2-(trifluoromethyl)phenyl)indoline-1-carboxamide] | 9 ± 1.7 µM
O=C(O)/C=C\C(=O)N1CCc2cc(S(=O)(=O)N3CCN(c4cccc(Cl)c4)CC3)ccc21 [JHE-01-129A, (Z)-4-(5-(4-(3-Chlorophenyl)piperazin-1-ylsulfonyl)indolin-1-yl)-4-oxobut-2-enoic acid] | 2.8 ± 0.7 µM
O=C(O)CCCC(=O)N1CCc2cc(S(=O)(=O)N3CCN(c4cccc(Cl)c4)CC3)ccc21 [JHE-01-129B, 5-(5-(4-(3-Chlorophenyl)piperazin-1-ylsulfonyl)indolin-1-yl)-5-oxopentanoic acid] | 2.8 ± 0.7 µM
CCOC(=O)CNC(=O)N1CCc2cc(S(=O)(=O)N3CCN(c4cccc(Cl)c4)CC3)ccc21 [JHE-01-134A, ethyl 2-(5-(4-(3-Chlorophenyl)piperazin-1-ylsulfonyl)indoline-1-carboxamido)acetate] | 60.3 µM

Molecule | IC50
O=C(O)CNC(=O)N1CCc2cc(S(=O)(=O)N3CCN(c4cccc(Cl)c4)CC3)ccc21 [JHE-01-137, 2-(5-(4-(3-Chlorophenyl)piperazin-1-ylsulfonyl)indoline-1-carboxamido)acetic acid] | 4.6 ± 0.3 µM
O=C(O)C(=O)N1CCc2cc(S(=O)(=O)N3CCN(c4cccc(Cl)c4)CC3)ccc21 [JHE-01-155B, 2-(5-(4-(3-Chlorophenyl)piperazin-1-ylsulfonyl)indolin-1-yl)-2-oxoacetic acid] | 4.8 ± 2.8 µM
COCC(=O)N1CCc2cc(S(=O)(=O)N3CCN(c4cccc(Cl)c4)CC3)ccc21 [JHE-01-169, 1-(5-(4-(3-Chlorophenyl)piperazin-1-ylsulfonyl)indolin-1-yl)-2-methoxyethanone] | 9.6 ± 2.4 µM
O=C(O)C(O)CC(=O)N1CCc2cc(S(=O)(=O)N3CCN(c4cccc(Cl)c4)CC3)ccc21 (centres unmarked) [JHE-02-001, 4-(5-(4-(3-Chlorophenyl)piperazin-1-ylsulfonyl)indolin-1-yl)-2-hydroxy-4-oxobutanoic acid] | 1.1 ± 0.3 µM
O=C(O)C1CC=CCC1C(=O)N1CCc2cc(S(=O)(=O)N3CCN(c4cccc(Cl)c4)CC3)ccc21 (centres unmarked) [JHE-02-007, 6-(5-(4-(3-Chlorophenyl)piperazin-1-ylsulfonyl)indoline-1-carbonyl)cyclohex-3-enecarboxylic acid] | 20.3 ± 4.3 µM
CCOC(=O)CCNC(=O)N1CCc2cc(S(=O)(=O)N3CCN(c4cccc(Cl)c4)CC3)ccc21 [JHE-02-010A, Ethyl 3-(5-(4-(3-chlorophenyl)piperazin-1-ylsulfonyl)indoline-1-carboxamido)propanoate] | 9.3 ± 2.2 µM
CCOC(=O)C(C)NC(=O)N1CCc2cc(S(=O)(=O)N3CCN(c4cccc(Cl)c4)CC3)ccc21 (centres unmarked) [JHE-02-010B, Ethyl 2-(5-(4-(3-chlorophenyl)piperazin-1-ylsulfonyl)indoline-1-carboxamido)propanoate] | 5.1 ± 2.7 µM
CCOC(=O)C(NC(=O)N1CCc2cc(S(=O)(=O)N3CCN(c4cccc(Cl)c4)CC3)ccc21)C(C)C (centres unmarked) [JHE-02-010C, Ethyl 2-(5-(4-(3-chlorophenyl)piperazin-1-ylsulfonyl)indoline-1-carboxamido)-3-methylbutanoate] | 7.7 ± 2.4 µM
CCOC(=O)C(CC(C)C)NC(=O)N1CCc2cc(S(=O)(=O)N3CCN(c4cccc(Cl)c4)CC3)ccc21 (centres unmarked) [JHE-02-012, Ethyl 2-(5-(4-(3-chlorophenyl)piperazin-1-ylsulfonyl)indoline-1-carboxamido)-4-methylpentanoate] | 6 ± 2.8 µM
CCOC(=O)C(Cc1ccccc1)NC(=O)N1CCc2cc(S(=O)(=O)N3CCN(c4cccc(Cl)c4)CC3)ccc21 (centres unmarked) [JHE-02-014, Ethyl 2-(5-(4-(3-chlorophenyl)piperazin-1-ylsulfonyl)indoline-1-carboxamido)-3-phenylpropanoate] | 6.9 ± 4.2 µM
COC(=O)c1ccccc1NC(=O)N1CCc2cc(S(=O)(=O)N3CCN(c4cccc(Cl)c4)CC3)ccc21 [JHE-02-015A, Methyl 2-(5-(4-(3-chlorophenyl)piperazin-1-ylsulfonyl)indoline-1-carboxamido)benzoate] | 14.3 ± 4.1 µM
O=C(O)CCNC(=O)N1CCc2cc(S(=O)(=O)N3CCN(c4cccc(Cl)c4)CC3)ccc21 [JHE-02-017A, 3-(5-(4-(3-Chlorophenyl)piperazin-1-ylsulfonyl)indoline-1-carboxamido)propanoic acid] | 4.8 ± 3.3 µM
CC(NC(=O)N1CCc2cc(S(=O)(=O)N3CCN(c4cccc(Cl)c4)CC3)ccc21)C(=O)O (centres unmarked) [JHE-02-017B, 2-(5-(4-(3-Chlorophenyl)piperazin-1-ylsulfonyl)indoline-1-carboxamido)propanoic acid] | 6.4 ± 0.5 µM
CC(C)C(NC(=O)N1CCc2cc(S(=O)(=O)N3CCN(c4cccc(Cl)c4)CC3)ccc21)C(=O)O (centres unmarked) [JHE-02-017C, 2-(5-(4-(3-Chlorophenyl)piperazin-1-ylsulfonyl)indoline-1-carboxamido)-3-methylbutanoic acid] | 4.4 ± 1.9 µM
CC(C)CC(NC(=O)N1CCc2cc(S(=O)(=O)N3CCN(c4cccc(Cl)c4)CC3)ccc21)C(=O)O (centres unmarked) [JHE-02-019A, 2-(5-(4-(3-Chlorophenyl)piperazin-1-ylsulfonyl)indoline-1-carboxamido)-4-methylpentanoic acid] | 4.5 ± 3.5 µM
O=C(O)C(Cc1ccccc1)NC(=O)N1CCc2cc(S(=O)(=O)N3CCN(c4cccc(Cl)c4)CC3)ccc21 (centres unmarked) [JHE-02-019B, 2-(5-(4-(3-Chlorophenyl)piperazin-1-ylsulfonyl)indoline-1-carboxamido)-3-phenylpropanoic acid] | 5.4 ± 2.7 µM
O=C(O)c1ccccc1NC(=O)N1CCc2cc(S(=O)(=O)N3CCN(c4cccc(Cl)c4)CC3)ccc21 [JHE-02-020A, 2-(5-(4-(3-Chlorophenyl)piperazin-1-ylsulfonyl)indoline-1-carboxamido)benzoic acid] | 8.3 ± 5.6 µM
